Assay results: ChEMBL document CHEMBL1152105, “Anthraquinones related to rhein inhibit glucose uptake into chondrocytes. A mechanism for anti-osteoarthritis drugs?” (1997)

Assay: Percent inhibition of glucose uptake into chondrocytes prepared from the metacarpophalageal joints of mature cow at concentration of 50 uM
Format: functional
Conditions: Bos taurus

Row | Compound | inhibition at 50 µM [%]
1 | COc1ccc(OC)c2c1C(=O)c1ccc(-c3nn[nH]n3)cc1C2=O | 81.8
2 | O=C(O)c1cc(O)c2c(c1)C(=O)c1cccc(O)c1C2=O [RHEIN] | 3
3 | CCOc1cccc2c1C(=O)c1c(OCC)cc(-c3nn[nH]n3)cc1C2=O | 92
4 | O=C1c2cccc(O)c2C(=O)c2c(O)cc(-c3nn[nH]n3)cc21 | 103
5 | COc1cccc2c1C(=O)c1c(OC)cc(C(=O)O)cc1C2=O | -1.9
6 | O=C(O)c1cc(O)c2c(c1O)C(=O)c1ccccc1C2=O | 24.9
7 | COc1cc(C(=O)O)cc2c1C(=O)c1c(OC)ccc(OC)c1C2=O | 4.8
8 | O=C(CCc1ccc(O)cc1)c1c(O)cc(O)cc1O[C@@H]1O[C@H](CO)[C@@H](O)[C@H](O)[C@H]1O [PHLORIZIN] | 11.9
9 | CCCOc1cccc2c1C(=O)c1c(OCCC)cc(C(=O)O)cc1C2=O | 56.7
10 | COc1ccc(OC)c2c1C(=O)c1ccc(C(=O)O)cc1C2=O | 25.3
11 | CC(=O)Oc1ccc2c(c1)C(=O)c1cc(C(=O)O)ccc1C2=O | 1.6
12 | COc1cccc2c1C(=O)c1c(OC)cc(-c3nn[nH]n3)cc1C2=O | 36.2
13 | CCOc1ccc(OCC)c2c1C(=O)c1ccc(C(=O)O)cc1C2=O | 37.7
14 | Oc1cc(O)c2c(c1)O[C@H](c1ccc(O)c(O)c1)[C@@H](O)C2 [CIANIDANOL] | 12.1
15 | CC(=O)Oc1ccc(OC(C)=O)c2c1C(=O)c1ccc(C(=O)O)cc1C2=O | 14.8
16 | O=C(O)c1ccc2c(c1)C(=O)c1cc(O)ccc1C2=O | 16.9
17 | O=C(O)c1cc(O)c2c(c1)C(=O)c1c(O)ccc(O)c1C2=O | 22.1
18 | COc1cc(C(=O)O)c(OC)c2c1C(=O)c1ccccc1C2=O | 14
19 | CCOc1cccc2c1C(=O)c1c(OCC)cc(C(=O)O)cc1C2=O | 18.5
